According to the OligoGym collection:
Where “and” joins values, the source holds several entries; their conditions need not be identical. Equal entries are not always repeated. After the bases stand the sugars from the 5' end (letter, count) and the backbone: PS all phosphorothioate, else s phosphorothioate and o phosphodiester by linkage. HELM strings list units from the 5' end as sugar, base in round brackets, then linkage (d deoxyribose, r ribose, m 2'-O-methyl, p phosphodiester). Methylation of C is not given here. [moe] = 2'-O-(2-methoxyethyl) (MOE); [cEt] = constrained ethyl (cEt); [sp] = phosphorothioate linkage; e = 2'-O-(2-methoxyethyl) (MOE); k = constrained ethyl (cEt); d = 2'-deoxy (DNA); m = 2'-O-methyl

How the values were obtained:
[1] = target: HBV; settings: ASO
[2] = target: IRF5; settings: ASO

Work on “RNA1{[cEt](A)[sp].[moe](G)[sp].[cEt](C)[sp].d(G)[sp].d(A)[sp].d(A)[sp].d(G)[sp].d(T)[sp].d(G)[sp].d(C)[sp].d(A)[sp].[moe](C)[sp].[moe](A)[sp].[moe](C)[sp].[moe](G)[sp].[moe](G)}$$$$V2.0” yielded a target mRNA inhibition ([1]; HepG2, 0.009375 µM) of 37%, a target mRNA inhibition ([1]; HepG2, 0.01875 µM) of 39% and a target mRNA inhibition ([1]; HepG2, 0.0375 µM) of 59%. For the same substance, the target mRNA inhibition ([1]; HepG2, 0.075 µM) was 72%, the target mRNA inhibition ([1]; HepG2, 0.15 µM) was 86% and the target mRNA inhibition ([1]; HepG2, 0.3 µM) was 90%.
Substance “RNA1{[cEt](A)[sp].d(G)[sp].[cEt](G)[sp].d(T)[sp].[cEt](G)[sp].d(A)[sp].d(A)[sp].d(G)[sp].d(C)[sp].d(G)[sp].d(A)[sp].d(A)[sp].d(G)[sp].d(T)[sp].[moe](G)[sp].[moe](C)}$$$$V2.0” has a target mRNA inhibition ([1]; HepG2, 0.009375 µM) of 14%, a target mRNA inhibition ([1]; HepG2, 0.01875 µM) of 21% and a target mRNA inhibition ([1]; HepG2, 0.0375 µM) of 42%. It also gave a target mRNA inhibition ([1]; HepG2, 0.075 µM) of 61%, a target mRNA inhibition ([1]; HepG2, 0.15 µM) of 80% and a target mRNA inhibition ([1]; HepG2, 0.3 µM) of 92%.
“RNA1{[moe](A)[sp].[cEt](A)[sp].[cEt](A)[sp].d(T)[sp].d(G)[sp].d(G)[sp].d(C)[sp].d(A)[sp].d(C)[sp].d(T)[sp].d(A)[sp].d(G)[sp].d(T)[sp].[cEt](A)[sp].[cEt](A)[sp].[moe](A)}$$$$V2.0” gave a target mRNA inhibition ([1]; HepG2, 0.07 µM) of 51%.
With “RNA1{[moe](A)[sp].[cEt](A)[sp].[cEt](G)[sp].d(G)[sp].d(C)[sp].d(A)[sp].d(C)[sp].d(A)[sp].d(G)[sp].d(C)[sp].d(T)[sp].d(T)[sp].d(G)[sp].[cEt](G)[sp].[cEt](A)[sp].[moe](G)}$$$$V2.0” the target mRNA inhibition ([1]; HepG2, 0.07 µM) was 32% and 15%.
“RNA1{[moe](A)[sp].[cEt](A)[sp].[cEt](G)[sp].d(T)[sp].d(C)[sp].d(C)[sp].d(A)[sp].d(C)[sp].d(C)[sp].d(A)[sp].d(C)[sp].d(G)[sp].d(A)[sp].[cEt](G)[sp].[cEt](T)[sp].[moe](C)}$$$$V2.0” was tested, and the target mRNA inhibition ([1]; HepG2, 0.07 µM) was 59% and 46%.
In the case of “RNA1{[moe](A)[sp].[cEt](C)[sp].[cEt](C)[sp].d(A)[sp].d(C)[sp].d(A)[sp].d(T)[sp].d(C)[sp].d(A)[sp].d(T)[sp].d(C)[sp].d(C)[sp].d(A)[sp].[cEt](T)[sp].[cEt](A)[sp].[moe](T)}$$$$V2.0”, the target mRNA inhibition ([1]; HepG2, 0.07 µM) is reported as 35% and 54%.
“RNA1{[moe](A)[sp].[cEt](C)[sp].[cEt](C)[sp].d(A)[sp].d(C)[sp].d(T)[sp].d(G)[sp].d(A)[sp].d(A)[sp].d(C)[sp].d(A)[sp].d(A)[sp].d(A)[sp].[cEt](T)[sp].[cEt](G)[sp].[moe](G)}$$$$V2.0” was tested, and the target mRNA inhibition ([1]; HepG2, 0.07 µM) was 70% and 57%.
“RNA1{[moe](A)[sp].[cEt](C)[sp].[cEt](T)[sp].d(G)[sp].d(A)[sp].d(A)[sp].d(C)[sp].d(A)[sp].d(A)[sp].d(A)[sp].d(T)[sp].d(G)[sp].d(G)[sp].[cEt](C)[sp].[cEt](A)[sp].[moe](C)}$$$$V2.0” was tested, and the target mRNA inhibition ([1]; HepG2, 0.07 µM) was 67% and 64%.
In the case of “RNA1{[moe](A)[sp].[cEt](C)[sp].[cEt](T)[sp].d(G)[sp].d(G)[sp].d(A)[sp].d(G)[sp].d(C)[sp].d(C)[sp].d(A)[sp].d(C)[sp].d(C)[sp].d(A)[sp].[cEt](G)[sp].[cEt](C)[sp].[moe](A)}$$$$V2.0”, the target mRNA inhibition ([1]; HepG2, 0.07 µM) is reported as 67% and 75%.
With “RNA1{[moe](A)[sp].[cEt](G)[sp].[cEt](G)[sp].d(C)[sp].d(A)[sp].d(T)[sp].d(A)[sp].d(G)[sp].d(C)[sp].d(A)[sp].d(G)[sp].d(C)[sp].d(A)[sp].[cEt](G)[sp].[cEt](G)[sp].[moe](A)}$$$$V2.0” the target mRNA inhibition ([1]; HepG2, 0.07 µM) was 72% and 70%.
In the case of “RNA1{[moe](A)[sp].[cEt](G)[sp].d(A)[sp].d(A)[sp].d(G)[sp].d(T)[sp].d(C)[sp].d(C)[sp].d(A)[sp].d(C)[sp].d(C)[sp].d(A)[sp].[cEt](C)[sp].[moe](G)[sp].[cEt](A)[sp].[moe](G)}$$$$V2.0”, the target mRNA inhibition ([1]; HepG2, 0.07 µM) is reported as 55% and 37%.
In the case of “RNA1{[moe](A)[sp].[cEt](G)[sp].d(G)[sp].d(T)[sp].d(G)[sp].d(A)[sp].d(A)[sp].d(G)[sp].d(C)[sp].d(G)[sp].d(A)[sp].d(A)[sp].[cEt](G)[sp].[moe](T)[sp].[cEt](G)[sp].[moe](C)}$$$$V2.0”, the target mRNA inhibition ([1]; HepG2, 0.0092593 µM) is reported as 12%, the target mRNA inhibition ([1]; HepG2, 0.0277778 µM) is reported as 36% and the target mRNA inhibition ([1]; HepG2, 0.07 µM) is reported as 78% and 85%. The target mRNA inhibition ([1]; HepG2, 0.0833333 µM) was 67% and the target mRNA inhibition ([1]; HepG2, 0.25 µM) was 80%.
With “RNA1{[moe](A)[sp].[moe](A)[sp].[moe](C)[sp].[moe](C)[sp].[moe](A)[sp].[moe](C)[sp].d(T)[sp].d(G)[sp].d(A)[sp].d(A)[sp].d(C)[sp].d(A)[sp].d(A)[sp].d(A)[sp].d(T)[sp].[moe](G)[sp].[moe](G)}$$$$V2.0” the target mRNA inhibition ([1]; HepG2, 0.07 µM) was 60% and 45%.
With “RNA1{[moe](A)[sp].[moe](A)[sp].[moe](C)[sp].[moe](T)[sp].[moe](G)[sp].[moe](G)[sp].d(A)[sp].d(G)[sp].d(C)[sp].d(C)[sp].d(A)[sp].d(C)[sp].d(C)[sp].d(A)[sp].d(G)[sp].[moe](C)[sp].[moe](A)}$$$$V2.0” the target mRNA inhibition ([1]; HepG2, 0.07 µM) was 70% and 50%.
For “RNA1{[moe](A)[sp].[moe](A)[sp].[moe](C)[sp].[moe](T)[sp].[moe](G)[sp].d(G)[sp].d(A)[sp].d(G)[sp].d(C)[sp].d(C)[sp].d(A)[sp].d(C)[sp].d(C)[sp].d(A)[sp].[moe](G)[sp].[moe](C)[sp].[moe](A)}$$$$V2.0”, the target mRNA inhibition ([1]; HepG2, 0.07 µM) was 31% and 37%.
With “RNA1{[moe](A)[sp].[moe](A)[sp].[moe](C)[sp].[moe](T)[sp].d(G)[sp].d(G)[sp].d(A)[sp].d(G)[sp].d(C)[sp].d(C)[sp].d(A)[sp].d(C)[sp].d(C)[sp].[moe](A)[sp].[moe](G)[sp].[moe](C)[sp].[moe](A)}$$$$V2.0” the target mRNA inhibition ([1]; HepG2, 0.07 µM) was 64% and 58%.
TCTGATATGATACCTA (sugars k3 d10 k3, PS) gave a target mRNA inhibition ([2]; A-431, 0.00412 µM) of 8%, a target mRNA inhibition ([2]; A-431, 0.01225 µM) of 27% and a target mRNA inhibition ([2]; A-431, 0.03704 µM) of 54%. It also gave a target mRNA inhibition ([2]; A-431, 0.11111 µM) of 78%, a target mRNA inhibition ([2]; A-431, 0.33333 µM) of 89% and a target mRNA inhibition ([2]; A-431, 1 µM) of 92%. The target mRNA inhibition ([2]; KARPAS-229, 0.44444 µM) was 59%, the target mRNA inhibition ([2]; KARPAS-229, 1.33333 µM) was 68% and the target mRNA inhibition ([2]; KARPAS-229, 4 µM) was 63% and 78%. The target mRNA inhibition ([2]; KARPAS-229, 12 µM) was 83%.
In the case of “TCTGAUATGATACCTA (sugars k3 d2 m1 d7 k3, PS)”, the target mRNA inhibition ([2]; A-431, 0.00412 µM) is reported as 0%, the target mRNA inhibition ([2]; A-431, 0.01225 µM) is reported as 12% and the target mRNA inhibition ([2]; A-431, 0.03704 µM) is reported as 35%. The target mRNA inhibition ([2]; A-431, 0.11111 µM) was 58%, the target mRNA inhibition ([2]; A-431, 0.33333 µM) was 79% and the target mRNA inhibition ([2]; A-431, 1 µM) was 83%.
“TCTTGACCTCCCGCTG (sugars kdddddddddkekeke, PS)” showed a target mRNA inhibition ([2]; KARPAS-229, 4 µM) of 40%.
Substance “TGAGTCATGGGCTGAG (sugars k3 d9 k3 e1, PS)” has a target mRNA inhibition ([2]; KARPAS-229, 4 µM) of 11%.
